For assay [1], the target named is T1, Alpha-mannosidase 2 (Rattus norvegicus, UniProt P28494).
T1 sequence (P28494 whole entry): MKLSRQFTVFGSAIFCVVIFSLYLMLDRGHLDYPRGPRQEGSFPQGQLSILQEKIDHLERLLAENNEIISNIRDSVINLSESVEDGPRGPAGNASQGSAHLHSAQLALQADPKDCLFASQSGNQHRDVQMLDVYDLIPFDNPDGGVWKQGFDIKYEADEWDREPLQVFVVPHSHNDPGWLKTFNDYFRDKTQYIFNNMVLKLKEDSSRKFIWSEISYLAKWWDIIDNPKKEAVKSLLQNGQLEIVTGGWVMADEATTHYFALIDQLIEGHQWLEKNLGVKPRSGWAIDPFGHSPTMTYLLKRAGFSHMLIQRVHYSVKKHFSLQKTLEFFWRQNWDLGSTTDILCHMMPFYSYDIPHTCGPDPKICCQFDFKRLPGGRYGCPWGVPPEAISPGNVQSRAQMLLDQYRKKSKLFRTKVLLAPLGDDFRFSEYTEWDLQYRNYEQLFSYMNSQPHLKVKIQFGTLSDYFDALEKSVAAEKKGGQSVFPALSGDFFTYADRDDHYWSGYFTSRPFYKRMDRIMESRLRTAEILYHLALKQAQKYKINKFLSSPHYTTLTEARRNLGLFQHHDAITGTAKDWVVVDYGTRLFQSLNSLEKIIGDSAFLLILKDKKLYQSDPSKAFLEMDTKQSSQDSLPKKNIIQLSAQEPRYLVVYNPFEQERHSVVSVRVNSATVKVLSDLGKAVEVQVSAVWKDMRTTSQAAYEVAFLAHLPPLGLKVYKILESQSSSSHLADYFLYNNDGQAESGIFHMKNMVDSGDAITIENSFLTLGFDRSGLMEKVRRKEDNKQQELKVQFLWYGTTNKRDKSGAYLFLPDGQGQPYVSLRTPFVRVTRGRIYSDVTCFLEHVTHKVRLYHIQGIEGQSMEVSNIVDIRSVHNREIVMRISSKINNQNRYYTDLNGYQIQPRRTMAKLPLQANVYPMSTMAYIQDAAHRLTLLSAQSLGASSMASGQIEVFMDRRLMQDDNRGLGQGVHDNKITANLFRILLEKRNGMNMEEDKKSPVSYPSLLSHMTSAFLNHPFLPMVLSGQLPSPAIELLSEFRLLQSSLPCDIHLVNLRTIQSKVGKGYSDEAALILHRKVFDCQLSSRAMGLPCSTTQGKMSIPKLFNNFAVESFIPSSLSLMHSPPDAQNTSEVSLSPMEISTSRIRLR
Briefly: Competitive Inhibitory activity against Golgi Alpha-mannosidase II.

The subject of a further assay is MT4. The assay can be described thus: Concentration giving 50% inhibition of HIV-1 induced cytopathogenicity in MT-4 cells. Format: functional, cell-based, Homo sapiens. (In general: Cytopathic effects are the visible damage that an infection or toxin causes in cultured cells.)
The nature of assay [2]: Inhibition of lysosomal Alpha-Glucosidase II in rat liver.
Assay [3] concerns the target T1, Alpha-mannosidase 2. The assay can be described thus: Inhibition of golgi Alpha-mannosidase II in rat liver. Format: tissue-based.
The next assay relates to MOLT-4. Briefly: Concentration giving 50% inhibition of HIV-1 induced cytopathogenicity in MOLT-4 cells. Format: functional, cell-based, Homo sapiens.
The nature of assay [4]: Competitive Inhibitory activity against Endoplasmic reticulum Alpha-Glucosidase II. The arrangement: species or system Rattus norvegicus.
The nature of assay [5]: Inhibition of Cellobiase in rat intestinal brush border membranes by D-glucose oxidase-peroxidase method. Format: cell membranes, Membrane.
For assay [6], the target named is Lactase/phlorizin hydrolase (Rattus norvegicus, UniProt Q02401). The assay can be described thus: Inhibition of Glycosidases (lactase)in rat intestinal brush border membranes by D-glucose oxidase-peroxidase method. Format: cell membranes, Membrane.
Lactase/phlorizin hydrolase, sequence (Q02401 868-1928 limits assumed): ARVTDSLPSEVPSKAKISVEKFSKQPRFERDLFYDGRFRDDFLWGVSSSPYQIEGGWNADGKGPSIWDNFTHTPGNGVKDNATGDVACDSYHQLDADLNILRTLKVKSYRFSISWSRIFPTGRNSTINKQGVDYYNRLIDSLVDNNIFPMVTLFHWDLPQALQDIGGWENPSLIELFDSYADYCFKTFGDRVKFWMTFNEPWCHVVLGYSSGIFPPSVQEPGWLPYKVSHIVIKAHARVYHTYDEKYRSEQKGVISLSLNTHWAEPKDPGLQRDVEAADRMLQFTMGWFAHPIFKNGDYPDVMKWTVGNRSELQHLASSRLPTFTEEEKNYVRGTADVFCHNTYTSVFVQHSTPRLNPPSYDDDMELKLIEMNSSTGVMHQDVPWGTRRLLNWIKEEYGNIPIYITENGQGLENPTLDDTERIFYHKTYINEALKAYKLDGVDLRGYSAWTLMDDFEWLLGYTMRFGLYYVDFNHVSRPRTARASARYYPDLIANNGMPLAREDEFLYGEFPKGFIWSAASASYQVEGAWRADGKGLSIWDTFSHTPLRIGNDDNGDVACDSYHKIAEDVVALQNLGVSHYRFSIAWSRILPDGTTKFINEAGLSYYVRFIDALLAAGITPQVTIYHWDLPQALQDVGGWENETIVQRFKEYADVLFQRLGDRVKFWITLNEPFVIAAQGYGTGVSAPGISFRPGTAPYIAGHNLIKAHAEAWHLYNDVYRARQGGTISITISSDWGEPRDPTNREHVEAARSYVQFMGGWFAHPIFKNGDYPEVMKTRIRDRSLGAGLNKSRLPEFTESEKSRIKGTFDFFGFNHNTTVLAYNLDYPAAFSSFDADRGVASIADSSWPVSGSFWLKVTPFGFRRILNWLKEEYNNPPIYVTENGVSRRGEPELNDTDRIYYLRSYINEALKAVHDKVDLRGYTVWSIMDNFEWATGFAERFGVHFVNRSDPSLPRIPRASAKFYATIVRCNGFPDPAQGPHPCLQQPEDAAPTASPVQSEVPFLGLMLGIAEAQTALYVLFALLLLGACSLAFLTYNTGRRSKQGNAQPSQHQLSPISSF
Assay [7] can be described thus: Inhibition of endoplasmic reticulum Alpha-Glucosidase II in rat liver. Format: tissue-based.
The target in the next assay is T2, Trehalase (Rattus norvegicus, UniProt O70282).
T2 sequence (O70282 whole entry): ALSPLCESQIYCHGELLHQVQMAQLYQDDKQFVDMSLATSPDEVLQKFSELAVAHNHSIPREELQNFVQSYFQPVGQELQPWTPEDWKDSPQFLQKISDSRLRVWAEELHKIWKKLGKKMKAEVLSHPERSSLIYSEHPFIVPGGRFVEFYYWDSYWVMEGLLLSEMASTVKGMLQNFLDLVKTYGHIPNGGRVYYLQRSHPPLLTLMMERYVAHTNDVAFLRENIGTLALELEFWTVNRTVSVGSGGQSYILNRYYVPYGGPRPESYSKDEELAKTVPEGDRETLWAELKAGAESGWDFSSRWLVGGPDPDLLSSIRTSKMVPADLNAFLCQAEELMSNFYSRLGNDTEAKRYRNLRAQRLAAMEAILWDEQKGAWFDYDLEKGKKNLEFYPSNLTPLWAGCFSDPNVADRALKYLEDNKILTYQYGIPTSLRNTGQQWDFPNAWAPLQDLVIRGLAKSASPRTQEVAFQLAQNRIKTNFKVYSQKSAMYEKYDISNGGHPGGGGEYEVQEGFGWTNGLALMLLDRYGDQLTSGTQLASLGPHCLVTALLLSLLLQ
The assay can be described thus: Inhibition of Glycosidases (trehalase)in rat intestinal brush border membranes by D-glucose oxidase-peroxidase method. Format: cell membranes, Membrane.

The target of another assay is T3, Alpha-mannosidase 2C1 (Rattus norvegicus, UniProt P21139).
T3 sequence (P21139 whole entry): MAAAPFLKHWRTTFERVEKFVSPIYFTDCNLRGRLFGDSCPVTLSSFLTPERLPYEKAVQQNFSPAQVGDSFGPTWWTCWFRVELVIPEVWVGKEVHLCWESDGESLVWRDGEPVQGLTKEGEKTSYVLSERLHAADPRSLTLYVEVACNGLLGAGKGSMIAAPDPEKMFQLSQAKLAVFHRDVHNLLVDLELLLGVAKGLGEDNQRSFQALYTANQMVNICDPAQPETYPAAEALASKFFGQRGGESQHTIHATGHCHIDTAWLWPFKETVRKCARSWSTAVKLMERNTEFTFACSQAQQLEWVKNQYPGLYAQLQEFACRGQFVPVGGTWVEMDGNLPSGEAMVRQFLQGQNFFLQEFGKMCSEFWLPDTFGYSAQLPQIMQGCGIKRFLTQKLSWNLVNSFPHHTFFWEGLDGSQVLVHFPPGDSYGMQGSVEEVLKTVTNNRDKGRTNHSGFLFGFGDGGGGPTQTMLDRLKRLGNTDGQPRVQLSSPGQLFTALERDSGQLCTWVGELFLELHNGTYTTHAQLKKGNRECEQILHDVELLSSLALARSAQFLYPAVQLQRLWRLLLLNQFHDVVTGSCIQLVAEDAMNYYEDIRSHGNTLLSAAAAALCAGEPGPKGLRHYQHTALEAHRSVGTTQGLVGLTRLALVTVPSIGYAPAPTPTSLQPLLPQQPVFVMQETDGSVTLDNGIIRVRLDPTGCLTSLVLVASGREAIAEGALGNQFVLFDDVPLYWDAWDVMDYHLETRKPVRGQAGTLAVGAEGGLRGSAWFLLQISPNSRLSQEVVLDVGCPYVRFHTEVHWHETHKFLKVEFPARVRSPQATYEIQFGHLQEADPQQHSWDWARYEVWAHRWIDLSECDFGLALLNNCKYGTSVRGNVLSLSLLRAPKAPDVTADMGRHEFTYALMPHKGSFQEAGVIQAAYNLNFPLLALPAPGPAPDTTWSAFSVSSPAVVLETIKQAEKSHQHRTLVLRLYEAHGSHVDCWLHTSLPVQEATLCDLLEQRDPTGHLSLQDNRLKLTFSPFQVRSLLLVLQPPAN
Briefly: Inhibition of soluble Alpha-mannosidase II in rat liver. Format: tissue-based.

Assay [8] concerns the target T4, Sucrase-isomaltase, intestinal (Rattus norvegicus, UniProt P23739). The assay can be described thus: Inhibition of Sucrase in rat intestinal brush border membranes by D-glucose oxidase-peroxidase method. Format: cell membranes, Membrane.
For a further assay, the target named is T5, Mannosidase 2, alpha B1 (Rattus norvegicus, UniProt Q6P762).
T5 sequence (Q6P762 whole entry): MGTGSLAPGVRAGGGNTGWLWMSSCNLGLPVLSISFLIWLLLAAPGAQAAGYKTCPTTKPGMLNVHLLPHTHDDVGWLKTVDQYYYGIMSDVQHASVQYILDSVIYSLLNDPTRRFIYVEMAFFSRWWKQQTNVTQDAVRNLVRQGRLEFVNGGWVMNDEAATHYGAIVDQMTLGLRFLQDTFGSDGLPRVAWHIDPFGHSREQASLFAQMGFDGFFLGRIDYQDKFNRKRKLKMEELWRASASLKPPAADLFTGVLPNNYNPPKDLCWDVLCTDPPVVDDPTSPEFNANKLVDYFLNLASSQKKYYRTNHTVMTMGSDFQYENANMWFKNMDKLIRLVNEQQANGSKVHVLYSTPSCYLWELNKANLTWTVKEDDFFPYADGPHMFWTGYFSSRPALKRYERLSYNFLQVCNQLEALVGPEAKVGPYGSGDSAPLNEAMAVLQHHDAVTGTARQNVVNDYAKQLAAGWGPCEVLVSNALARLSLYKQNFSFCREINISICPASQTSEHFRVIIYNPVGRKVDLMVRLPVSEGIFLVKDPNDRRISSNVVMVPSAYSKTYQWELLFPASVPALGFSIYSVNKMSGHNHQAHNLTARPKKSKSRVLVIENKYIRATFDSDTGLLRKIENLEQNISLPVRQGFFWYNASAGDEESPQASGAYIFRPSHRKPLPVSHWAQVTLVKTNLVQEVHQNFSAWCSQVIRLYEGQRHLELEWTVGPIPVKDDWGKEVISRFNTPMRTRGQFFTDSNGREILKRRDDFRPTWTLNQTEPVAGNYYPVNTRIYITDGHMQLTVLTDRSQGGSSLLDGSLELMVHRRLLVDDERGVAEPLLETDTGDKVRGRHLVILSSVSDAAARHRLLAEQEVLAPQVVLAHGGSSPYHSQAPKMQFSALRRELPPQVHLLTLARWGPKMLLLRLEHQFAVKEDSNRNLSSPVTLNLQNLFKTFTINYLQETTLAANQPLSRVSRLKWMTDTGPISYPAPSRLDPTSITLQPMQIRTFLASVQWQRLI
The assay can be described thus: Inhibition of lysosomal Alpha-mannosidase II in rat liver. Format: tissue-based.

Assay [9] addresses T4, Sucrase-isomaltase, intestinal. The assay can be described thus: Inhibition of Glycosidases (isomaltase)in rat intestinal brush border membranes by D-glucose oxidase-peroxidase method. Format: cell membranes, Membrane.

For orientation: Ki means a dissociation constant, usually derived from enzyme kinetics or from competition with a known ligand. A low value points to tighter binding. In general, EC50 refers to the concentration at which the effect is half-maximal. The low end stands for a more potent agent, the high end for a less potent agent. A word on the IC50: it is the concentration needed to halve the response being measured. Low readings indicate higher potency, high ones lower potency.

T4 sequence (P23739 1-1013 limits assumed): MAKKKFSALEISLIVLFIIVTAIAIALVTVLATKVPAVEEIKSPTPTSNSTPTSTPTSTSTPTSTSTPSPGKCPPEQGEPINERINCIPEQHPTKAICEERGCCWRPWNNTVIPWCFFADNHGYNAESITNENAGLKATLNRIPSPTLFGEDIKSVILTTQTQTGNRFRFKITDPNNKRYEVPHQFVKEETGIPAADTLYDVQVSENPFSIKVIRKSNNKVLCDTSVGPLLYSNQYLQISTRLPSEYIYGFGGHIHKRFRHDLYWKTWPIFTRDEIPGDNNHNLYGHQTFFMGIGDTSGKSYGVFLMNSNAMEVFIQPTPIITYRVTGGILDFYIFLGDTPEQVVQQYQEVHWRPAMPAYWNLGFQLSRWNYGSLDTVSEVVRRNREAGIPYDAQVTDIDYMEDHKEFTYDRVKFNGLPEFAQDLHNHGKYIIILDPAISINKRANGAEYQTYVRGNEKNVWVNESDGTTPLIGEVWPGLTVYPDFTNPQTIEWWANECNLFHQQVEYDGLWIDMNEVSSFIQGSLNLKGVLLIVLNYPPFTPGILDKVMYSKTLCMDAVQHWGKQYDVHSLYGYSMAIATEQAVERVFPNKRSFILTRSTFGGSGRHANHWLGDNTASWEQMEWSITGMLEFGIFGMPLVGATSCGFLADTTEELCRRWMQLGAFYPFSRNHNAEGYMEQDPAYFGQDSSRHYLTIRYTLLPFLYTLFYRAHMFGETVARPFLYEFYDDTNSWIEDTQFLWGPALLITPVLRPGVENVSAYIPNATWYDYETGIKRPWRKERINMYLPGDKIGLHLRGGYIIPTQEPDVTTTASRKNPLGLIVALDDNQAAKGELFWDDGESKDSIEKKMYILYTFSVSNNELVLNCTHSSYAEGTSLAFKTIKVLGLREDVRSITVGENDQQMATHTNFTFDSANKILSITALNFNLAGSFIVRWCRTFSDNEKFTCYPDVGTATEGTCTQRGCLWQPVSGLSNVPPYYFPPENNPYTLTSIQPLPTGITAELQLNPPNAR
T4 sequence (P23739 1014-1841 limits assumed): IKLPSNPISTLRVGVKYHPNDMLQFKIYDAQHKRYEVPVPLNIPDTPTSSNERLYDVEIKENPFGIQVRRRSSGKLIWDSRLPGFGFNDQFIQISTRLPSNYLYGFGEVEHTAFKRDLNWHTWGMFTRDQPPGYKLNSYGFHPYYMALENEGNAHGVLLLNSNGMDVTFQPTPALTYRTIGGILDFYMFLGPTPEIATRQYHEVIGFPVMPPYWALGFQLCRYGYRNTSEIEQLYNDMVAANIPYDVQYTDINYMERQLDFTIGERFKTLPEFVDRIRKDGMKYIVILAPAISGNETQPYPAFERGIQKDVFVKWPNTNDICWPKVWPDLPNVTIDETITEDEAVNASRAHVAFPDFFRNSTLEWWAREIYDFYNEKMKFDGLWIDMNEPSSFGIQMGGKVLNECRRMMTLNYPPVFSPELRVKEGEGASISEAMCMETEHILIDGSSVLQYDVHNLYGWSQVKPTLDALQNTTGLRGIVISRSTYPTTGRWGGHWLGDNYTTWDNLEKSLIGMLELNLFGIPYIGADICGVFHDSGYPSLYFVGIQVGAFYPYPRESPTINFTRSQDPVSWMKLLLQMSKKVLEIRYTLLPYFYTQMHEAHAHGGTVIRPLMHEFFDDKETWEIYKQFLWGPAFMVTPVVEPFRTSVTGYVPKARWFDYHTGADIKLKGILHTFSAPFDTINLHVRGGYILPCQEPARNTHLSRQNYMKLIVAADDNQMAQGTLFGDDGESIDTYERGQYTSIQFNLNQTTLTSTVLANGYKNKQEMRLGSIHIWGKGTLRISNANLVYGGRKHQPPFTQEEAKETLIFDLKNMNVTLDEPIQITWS

As for `OC[C@H]1NC[C@H](O)[C@@H](O)[C@@H]1O` [DUVOGLUSTAT], the Ki at Alpha-mannosidase 2 [1] was below 50 µM. Moreover, the EC50 with MT4 and in the assay on MOLT-4 was above 100 µg/mL throughout. Besides, the IC50 in assay [2] was 0.4 µM; against Alpha-mannosidase 2 [3], below 50 µM.
For `OC[C@H]1NC[C@@H](O)[C@@H]1O`, the figures for the inhibition constant Ki (at Alpha-mannosidase 2 [1]; in assay [4]) were 35 µM and 9.7 µM, respectively. Moreover, the EC50 in the assay on MT4 and in the assay on MOLT-4 was above 100 µg/mL each time. The IC50 in assay [2] was 130 µM; in assay [5], below 50 µM; in assay [6], 260 µM; in [7] it was 20 µM; on Alpha-mannosidase 2 [3] it was 46 µM; on Trehalase, 25 µM.
Turning to `OC[C@H]1N[C@H](CO)[C@@H](O)[C@@H]1O`, the IC50 on Alpha-mannosidase 2C1 was 260 µM; in assay [8], 44 µM; at Mannosidase 2, alpha B1 it was below 50 µM; in assay [9], 91 µM; in assay [7], below 50 µM. Besides, the EC50 in the assay with MT4 and in the assay with MOLT-4 was above 100 µg/mL in each case.
On to `CN1[C@H](CO)[C@@H](O)[C@H](O)[C@H]1CO`, for which the IC50 against Alpha-mannosidase 2C1 is 190 µM; in assay [8] it was 620 µM; in assay [2] it was 470 µM; against Mannosidase 2, alpha B1 it was below 50 µM; in [9] it was below 50 µM; in assay [5], below 50 µM. Besides, the IC50 (in [6]; in assay [7]; on Alpha-mannosidase 2 [3]) was below 50 µM each time. Besides, the EC50 in the assay on MT4 and in the assay with MOLT-4 was above 100 µg/mL throughout.
Take `CCCCN1[C@H](CO)[C@@H](O)[C@H](O)[C@H]1CO`: the IC50 was 850 µM on Alpha-mannosidase 2C1; below 50 µM in [8]; below 50 µM in [2]; below 50 µM at Mannosidase 2, alpha B1; below 50 µM in assay [9]; below 50 µM in [5]. Also, the IC50 (in [6]; in assay [7]; at Alpha-mannosidase 2 [3]) was below 50 µM throughout. The EC50 in the assay on MT4 and in the assay with MOLT-4 was above 100 µg/mL in each case.

For the origin of these results see ChEMBL document CHEMBL1128713, “N-alkylated nitrogen-in-the-ring sugars: conformational basis of inhibition of glycosidases and HIV-1 replication” (J Med Chem, 1995).
